Experiments:
CYP3A4.32 = CYP3A4.32 (Homo sapiens, UniProt P08684, I335T); assay: Ziprasidone catalysis by recombinant CYP3A4.32
Method: (§1) Following the incubation, 400 μL of ACN and 20 μL of IS were added to the mixture. The sample was then vortexed and centrifuged, and the resulting supernatant was collected for analysis via LC-MS/MS.

CYP3A4.12 = CYP3A4.12 (Homo sapiens, UniProt P08684, L373F); assay: Ziprasidone catalysis by recombinant CYP3A4.12
Method: as §1

CYP3A4.5 = CYP3A4.5 (Homo sapiens, UniProt P08684, P218R); assay: Ziprasidone catalysis by recombinant CYP3A4.5
Method: as §1

CYP3A4.15 = CYP3A4.15 (Homo sapiens, UniProt P08684, R162Q); assay: Ziprasidone catalysis by recombinant CYP3A4.15
Method: as §1

CYP3A4.3 = CYP3A4.3 (Homo sapiens, UniProt P08684, M445T); assay: Ziprasidone catalysis by recombinant CYP3A4.3
Method: as §1

CYP3A4.34 = CYP3A4.34 (Homo sapiens, UniProt P08684, I427V); assay: Ziprasidone catalysis by recombinant CYP3A4.34; conditions: CYP3A4.34, CL = Vmax/Km
Method: as §1

CYP3A4.13 = CYP3A4.13 (Homo sapiens, UniProt P08684, P416L); assay: Ziprasidone catalysis by recombinant CYP3A4.13
Method: as §1

CYP3A4.19 = CYP3A4.19 (Homo sapiens, UniProt P08684, P467S); assay: Ziprasidone catalysis by recombinant CYP3A4.19
Method: as §1

CYP3A4.9 = CYP3A4.9 (Homo sapiens, UniProt P08684, V170I); assay: Ziprasidone catalysis by recombinant CYP3A4.9
Method: as §1

CYP3A4.18 = CYP3A4.18 (Homo sapiens, UniProt P08684, L293P); assay: Ziprasidone catalysis by recombinant CYP3A4.18
Method: as §1

CYP3A4.1 = CYP3A4.1 (Homo sapiens, UniProt P08684); assay: Ziprasidone catalysis by recombinant CYP3A4.1
Method: as §1

CYP3A4.28 = CYP3A4.28 (Homo sapiens, UniProt P08684, L22V); assay: Ziprasidone catalysis by recombinant CYP3A4.28
Method: as §1

CYP3A4.10 = CYP3A4.10 (Homo sapiens, UniProt P08684, D174H); assay: Ziprasidone catalysis by recombinant CYP3A4.10
Method: as §1

CYP3A4.31 = CYP3A4.31 (Homo sapiens, UniProt P08684, H324Q); assay: Ziprasidone catalysis by recombinant CYP3A4.31
Method: as §1

CYP3A4.33 = CYP3A4.33 (Homo sapiens, UniProt P08684, A370S); assay: Ziprasidone catalysis by recombinant CYP3A4.33; conditions: CYP3A4.33, CL = Vmax/Km
Method: as §1

CYP3A4.8 = CYP3A4.8 (Homo sapiens, UniProt P08684, R130Q); assay: Ziprasidone catalysis by recombinant CYP3A4.8
Method: as §1

[1] = parameters: method as in Beedham et al., 2003; conditions: humans; ref Beedham et al., 2003; cited from earlier work
CYP3A4.16 = CYP3A4.16 (Homo sapiens, UniProt P08684, T185S); assay: Ziprasidone catalysis by recombinant CYP3A4.16; conditions: CYP3A4.16, CL = Vmax/Km
Method: as §1

CYP3A4.24 = CYP3A4.24 (Homo sapiens, UniProt P08684, Q200H); assay: Ziprasidone catalysis by recombinant CYP3A4.24; conditions: CYP3A4.24, CL = Vmax/Km
Method: as §1

CYP3A4.14 = CYP3A4.14 (Homo sapiens, UniProt P08684, L15P); assay: Ziprasidone catalysis by recombinant CYP3A4.14
Method: as §1

CYP3A4.23 = CYP3A4.23 (Homo sapiens, UniProt P08684, R162W); assay: Ziprasidone catalysis by recombinant CYP3A4.23
Method: as §1

[2] = Rat pharmacokinetic study of ziprasidone and ziprasidone sulfoxide with resveratrol or quercetin; conditions: male, Sprague-Dawley, plasma, po, 15 mg/kg, rats, n=6; for CL/F: CLz/F; for Vd/F: Vz/F; for half-life: t1/2z
Method: To minimize potential confounding effects of hormonal fluctuations, this study exclusively utilized male Sprague-Dawley (SD) rats (340 ± 15 g) obtained from Vital River Laboratories (Beijing, China).
Following a 7-day acclimatization period under controlled conditions (temperature: 20°C–25°C; humidity: 50%–65%; 12h/12 h light/dark cycle), 18 rats were fasted for 12 h (water ad libitum) and randomly divided into three treatment groups (n = 6 per group).
Serial blood samples (50 μL) were collected at predetermined time points (0, 1, 2, 4, 6, 8, 10, 12, 24, and 48 h) and processed with 150 μL acetonitrile and 20 μL midazolam IS (500 ng/mL). After vortex-mixing (2 min) and centrifugation (10,075 × g, 10 min), the supernatant was subjected to LC-MS/MS analysis. […] Calibration curves were established over 1–1,000 ng/mL for both analytes, with samples processed identically to study specimens.
Essential pharmacokinetic parameters were determined using a non-compartmental model through Drug and Statistics (DAS) software version 3.0. For the polymorphism experiment results, one-way ANOVA was performed in GraphPad Prism 8.0, while pharmacokinetic data were assessed using an unpaired t-test, with a p-value below 0.05 deemed statistically significant.

[3] = ziprasidone 15 mg/kg oral + quercetin 50 mg/kg i.g.
[4] = ziprasidone 15 mg/kg oral + resveratrol 50 mg/kg i.g.
[5] = ziprasidone 15 mg/kg oral, control (corn oil)

Sequence of CYP3A4.28 (P08684 whole entry L22V): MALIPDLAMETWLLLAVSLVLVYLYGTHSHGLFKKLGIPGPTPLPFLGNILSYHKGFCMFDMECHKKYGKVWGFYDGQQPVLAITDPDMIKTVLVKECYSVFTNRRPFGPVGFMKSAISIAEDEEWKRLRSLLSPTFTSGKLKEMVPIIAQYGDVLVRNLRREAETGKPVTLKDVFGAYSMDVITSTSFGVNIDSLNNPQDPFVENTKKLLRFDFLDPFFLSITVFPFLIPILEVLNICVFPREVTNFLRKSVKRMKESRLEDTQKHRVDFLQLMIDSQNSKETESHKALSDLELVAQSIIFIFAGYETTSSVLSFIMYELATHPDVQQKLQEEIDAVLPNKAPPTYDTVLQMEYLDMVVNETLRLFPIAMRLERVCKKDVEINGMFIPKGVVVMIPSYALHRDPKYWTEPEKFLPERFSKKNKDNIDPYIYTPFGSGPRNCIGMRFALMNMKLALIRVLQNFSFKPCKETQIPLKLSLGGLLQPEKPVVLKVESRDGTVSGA
Sequence of CYP3A4.31 (P08684 whole entry H324Q): as the sequence (P08684 whole entry L22V) above, with V22L, H324Q counted along it
Sequence of CYP3A4.3 (P08684 whole entry M445T): as the sequence (P08684 whole entry L22V) above, with V22L, M445T counted along it
Sequence of CYP3A4.12 (P08684 whole entry L373F): as the sequence (P08684 whole entry L22V) above, with V22L, L373F counted along it
Sequence of CYP3A4.1 (P08684 whole entry): as the sequence (P08684 whole entry L22V) above, with V22L counted along it
Sequence of CYP3A4.8 (P08684 whole entry R130Q): as the sequence (P08684 whole entry L22V) above, with V22L, R130Q counted along it
Sequence of CYP3A4.9 (P08684 whole entry V170I): as the sequence (P08684 whole entry L22V) above, with V22L, V170I counted along it
Sequence of CYP3A4.5 (P08684 whole entry P218R): as the sequence (P08684 whole entry L22V) above, with V22L, P218R counted along it
Sequence of CYP3A4.14 (P08684 whole entry L15P): as the sequence (P08684 whole entry L22V) above, with L15P, V22L counted along it
Sequence of CYP3A4.19 (P08684 whole entry P467S): as the sequence (P08684 whole entry L22V) above, with V22L, P467S counted along it
Sequence of CYP3A4.18 (P08684 whole entry L293P): as the sequence (P08684 whole entry L22V) above, with V22L, L293P counted along it
Sequence of CYP3A4.15 (P08684 whole entry R162Q): as the sequence (P08684 whole entry L22V) above, with V22L, R162Q counted along it
Sequence of CYP3A4.10 (P08684 whole entry D174H): as the sequence (P08684 whole entry L22V) above, with V22L, D174H counted along it
Sequence of CYP3A4.23 (P08684 whole entry R162W): as the sequence (P08684 whole entry L22V) above, with V22L, R162W counted along it
Sequence of CYP3A4.32 (P08684 whole entry I335T): as the sequence (P08684 whole entry L22V) above, with V22L, I335T counted along it
Sequence of CYP3A4.13 (P08684 whole entry P416L): as the sequence (P08684 whole entry L22V) above, with V22L, P416L counted along it
Sequence of CYP3A4.34 (P08684 whole entry I427V): as the sequence (P08684 whole entry L22V) above, with V22L, I427V counted along it
Sequence of CYP3A4.33 (P08684 whole entry A370S): as the sequence (P08684 whole entry L22V) above, with V22L, A370S counted along it
Sequence of CYP3A4.24 (P08684 whole entry Q200H): as the sequence (P08684 whole entry L22V) above, with V22L, Q200H counted along it
Sequence of CYP3A4.16 (P08684 whole entry T185S): as the sequence (P08684 whole entry L22V) above, with V22L, T185S counted along it

Question: What does the source list for `O=C1Cc2cc(CCN3CCN(c4nsc5ccccc45)CC3)c(Cl)cc2N1` [ziprasidone, Ziprasidone]?
Answer: CL (CYP3A4.32; CYP3A4.32, CL = Vmax/Km): 7.66 ± 1.55 µL/min/pmol; % of CYP3A4.1 (CYP3A4.32; CYP3A4.32, relative clearance): 104.25 ± 21.13%; CL (CYP3A4.12; CYP3A4.12, CL = Vmax/Km): 5.72 ± 0.87 µL/min/pmol; % of CYP3A4.1 (CYP3A4.12; CYP3A4.12, relative clearance): 94.29 ± 14.33%; CL (CYP3A4.5; CYP3A4.5, CL = Vmax/Km): 4.65 ± 0.52 µL/min/pmol; % of CYP3A4.1 (CYP3A4.5; CYP3A4.5, relative clearance): 76.73 ± 8.59%; CL (CYP3A4.15; CYP3A4.15, CL = Vmax/Km): 9.53 ± 1.38 µL/min/pmol; % of CYP3A4.1 (CYP3A4.15; CYP3A4.15, relative clearance): 157.07 ± 22.67 %; CL (CYP3A4.3; CYP3A4.3, CL = Vmax/Km): 9.30 ± 0.85 µL/min/pmol; % of CYP3A4.1 (CYP3A4.3; CYP3A4.3, relative clearance): 153.26 ± 14.08 %; CL (CYP3A4.34): 4.65 ± 0.66 µL/min/pmol; CL (CYP3A4.13; CYP3A4.13, CL = Vmax/Km): 5.60 ± 0.90 µL/min/pmol; % of CYP3A4.1 (CYP3A4.13; CYP3A4.13, relative clearance): 92.30 ± 14.84%; CL (CYP3A4.19; CYP3A4.19, CL = Vmax/Km): 6.19 ± 0.53 µL/min/pmol; % of CYP3A4.1 (CYP3A4.19; CYP3A4.19, relative clearance): 84.26 ± 7.20%; CL (CYP3A4.9; CYP3A4.9, CL = Vmax/Km): 7.92 ± 0.36 µL/min/pmol; % of CYP3A4.1 (CYP3A4.9; CYP3A4.9, relative clearance): 130.65 ± 6.00%; CL (CYP3A4.18; CYP3A4.18, CL = Vmax/Km): 6.56 ± 1.12 µL/min/pmol; % of CYP3A4.1 (CYP3A4.18; CYP3A4.18, relative clearance): 89.27 ± 15.28%; CL (CYP3A4.1; CYP3A4.1, CL = Vmax/Km): 6.07 ± 1.19 µL/min/pmol; % of CYP3A4.1 (CYP3A4.1; CYP3A4.1, relative clearance): 100.00 ± 19.66%; CL (CYP3A4.28; CYP3A4.28, CL = Vmax/Km): 5.69 ± 1.01 µL/min/pmol; % of CYP3A4.1 (CYP3A4.28; CYP3A4.28, relative clearance): 77.40 ± 13.81%; CL (CYP3A4.10; CYP3A4.10, CL = Vmax/Km): 4.52 ± 0.35 µL/min/pmol; % of CYP3A4.1 (CYP3A4.10; CYP3A4.10, relative clearance): 74.60 ± 5.81%; CL (CYP3A4.31; CYP3A4.31, CL = Vmax/Km): 4.08 ± 0.83 µL/min/pmol; % of CYP3A4.1 (CYP3A4.31; CYP3A4.31, relative clearance): 55.46 ± 11.30 %; CL (CYP3A4.33): 14.74 ± 0.74 µL/min/pmol; CL (CYP3A4.8; CYP3A4.8, CL = Vmax/Km): 5.71 ± 0.42 µL/min/pmol; % of CYP3A4.1 (CYP3A4.8; CYP3A4.8, relative clearance): 94.14 ± 6.86%; administered dose excreted unchanged [1]: less than 5%; CL (CYP3A4.16): 6.79 ± 1.26 µL/min/pmol; CL (CYP3A4.24): 3.46 ± 0.67 µL/min/pmol; CL (CYP3A4.14; CYP3A4.14, CL = Vmax/Km): 6.64 ± 0.48 µL/min/pmol; % of CYP3A4.1 (CYP3A4.14; CYP3A4.14, relative clearance): 109.41 ± 7.88%; CL (CYP3A4.23; CYP3A4.23, CL = Vmax/Km): 6.11 ± 0.83 µL/min/pmol; % of CYP3A4.1 (CYP3A4.23; CYP3A4.23, relative clearance): 83.13 ± 11.26%; AUC(0-t) [2, 3]: 9390 ng·h/mL; AUC(0-t) [2, 4]: 6760 ng·h/mL; AUC(0-t) [2, 5]: 6610 ng·h/mL; AUC(0-inf) [2, 3]: 9390 ng·h/mL; AUC(0-inf) [2, 4]: 6760 ng·h/mL; AUC(0-inf) [2, 5]: 6980 ng·h/mL; CL/F [2, 3]: 94.2 mL/min/kg; CL/F [2, 4]: 150 mL/min/kg; CL/F [2, 5]: 43.8 mL/min/kg; Cmax [2, 3]: 1620 ng/mL; Cmax [2, 4]: 1160 ng/mL; Cmax [2, 5]: 963 ± 367 ng/mL; Tmax [2, 3]: 4 ± 1.79 h; Tmax [2, 4]: 4.33 ± 2.66 h; Tmax [2, 5]: 4 ± 2.19 h; Vd/F [2, 3]: 33.3 ± 22.1 L/kg; Vd/F [2, 4]: 56.1 ± 42.7 L/kg; Vd/F [2, 5]: 24.3 ± 19.1 L/kg; half-life [2, 3]: 3.79 ± 2.11 h; half-life [2, 4]: 4.06 ± 1.52 h; half-life [2, 5]: 8.64 ± 10.8 h

— PMC12069442 (Frontiers in Pharmacology, 2025)
